Assay results published in ChEMBL document CHEMBL4145542, “Recent progress in potential anti-hepatitis B virus agents: Structural and pharmacological perspectives” (Eur J Med Chem, 2018).

What was measured:
[1] = test system: Hepatitis B virus; assay: Antiviral activity against HBV infected in human HepDES19 cells assessed as reduction in viral cccDNA level; type: functional, organism-based
[2] = test system: Hepatitis B virus; assay: Antiviral activity against HBV infected in human HepG2.2.15 cells assessed as reduction in viral DNA level after 8 days by dot-blot hybridization assay; type: functional, organism-based; conditions: HepG2.2.15, 192 h

| EC50 [1] | IC50 [2] | SMILES |
| --- | --- | --- |
| 3000 nM | – | Cc1nc2cc(NC(=O)c3ccc(S(=O)(=O)N(C)Cc4ccccc4)cc3)ccc2s1 |
| 10000 nM | – | O=C(CN(c1cc(C(F)(F)F)ccc1Cl)S(=O)(=O)c1ccccc1)NCc1ccncc1 |
| – | 53 nM | COC(=O)C1=C(C)NC(c2ncc(F)cc2F)=N[C@H]1c1ccc(F)cc1Cl |
